Experimental data as given in patent US7794994B2 (Kemeta, LLC, priority 2001, dated 2010).

Columns and labels:
[1] = target: T1, acetone carboxylase coupled to β-hydroxybutyrate dehydrogenase (Xanthobacter versatilis, UniProt Q8RM03+Q8RM04); assay: Acetone carboxylase coupled to NADH oxidation spectrophotometric assay; format: biochemical, X. autotrophicus strain Py2; settings: for activity as substrate and inhibition of acetone carboxylation activity: alternative compounds in coupled enzyme system
T1 construct: host or cells: X. autotrophicus strain Py2 (native organism; enzyme obtained from Prof; S. A. Ensign / purified as previously published)
T1 sequence (Q8RM03 1-776): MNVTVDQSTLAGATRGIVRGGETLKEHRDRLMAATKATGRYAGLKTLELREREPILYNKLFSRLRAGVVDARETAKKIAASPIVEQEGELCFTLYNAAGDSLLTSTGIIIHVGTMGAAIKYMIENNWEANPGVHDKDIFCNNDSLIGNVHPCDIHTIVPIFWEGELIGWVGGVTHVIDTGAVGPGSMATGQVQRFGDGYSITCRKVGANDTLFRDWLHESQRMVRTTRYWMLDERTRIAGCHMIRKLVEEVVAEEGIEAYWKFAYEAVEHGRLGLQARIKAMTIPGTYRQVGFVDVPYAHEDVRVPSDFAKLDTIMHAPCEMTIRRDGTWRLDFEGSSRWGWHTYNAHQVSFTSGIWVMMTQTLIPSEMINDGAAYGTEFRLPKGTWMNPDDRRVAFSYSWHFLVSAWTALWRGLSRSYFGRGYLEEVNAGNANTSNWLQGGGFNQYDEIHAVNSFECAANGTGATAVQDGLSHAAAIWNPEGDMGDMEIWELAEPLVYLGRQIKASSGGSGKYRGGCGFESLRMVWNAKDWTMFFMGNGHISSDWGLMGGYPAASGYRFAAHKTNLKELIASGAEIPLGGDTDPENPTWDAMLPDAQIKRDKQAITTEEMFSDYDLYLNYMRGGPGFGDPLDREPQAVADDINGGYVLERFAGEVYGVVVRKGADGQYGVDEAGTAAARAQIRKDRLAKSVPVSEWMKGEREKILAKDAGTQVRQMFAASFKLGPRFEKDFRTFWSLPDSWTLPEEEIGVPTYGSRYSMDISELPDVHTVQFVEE
T1 sequence (Q8RM04 1-717): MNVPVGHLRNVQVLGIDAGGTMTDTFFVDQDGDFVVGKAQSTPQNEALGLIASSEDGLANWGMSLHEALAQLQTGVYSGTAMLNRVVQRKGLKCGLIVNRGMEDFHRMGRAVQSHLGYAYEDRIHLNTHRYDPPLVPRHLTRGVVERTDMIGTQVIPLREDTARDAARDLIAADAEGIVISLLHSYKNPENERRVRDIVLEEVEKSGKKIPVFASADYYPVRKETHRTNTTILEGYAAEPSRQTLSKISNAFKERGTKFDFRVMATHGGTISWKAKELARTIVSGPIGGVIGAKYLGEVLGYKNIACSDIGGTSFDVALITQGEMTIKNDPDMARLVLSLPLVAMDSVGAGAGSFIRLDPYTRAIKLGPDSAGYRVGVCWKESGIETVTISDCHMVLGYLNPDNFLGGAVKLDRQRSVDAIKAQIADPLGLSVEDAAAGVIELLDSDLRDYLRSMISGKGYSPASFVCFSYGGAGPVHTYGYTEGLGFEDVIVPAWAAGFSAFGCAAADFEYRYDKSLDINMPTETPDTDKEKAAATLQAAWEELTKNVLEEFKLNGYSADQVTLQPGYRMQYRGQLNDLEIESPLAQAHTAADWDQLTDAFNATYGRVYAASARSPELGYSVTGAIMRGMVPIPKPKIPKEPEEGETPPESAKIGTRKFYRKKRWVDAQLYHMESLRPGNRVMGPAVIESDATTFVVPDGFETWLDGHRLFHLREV
T1 sequence (Q8RM02 2-168 partner limits assumed): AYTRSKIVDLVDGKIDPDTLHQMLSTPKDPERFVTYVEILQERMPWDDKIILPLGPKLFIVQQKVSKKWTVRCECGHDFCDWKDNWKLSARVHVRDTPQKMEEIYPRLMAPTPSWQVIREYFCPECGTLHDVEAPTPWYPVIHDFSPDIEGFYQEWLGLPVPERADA
Experimental: Assays were performed in 2 mL (1 cm path length) quartz cuvettes that had been modified by fusing a serum bottle-style quartz top (7×13 mm at mouth), allowing the cuvettes to be sealed with a red rubber serum stopper. […] The addition of […] (3 U) and NADH (0.2 mM) allowed acetoacetate formation to be coupled to the oxidation of NADH. […] The reaction was monitored by measuring the decrease in absorbance at 340 nm (∈340 of 6.22 mM^−·cm^−1 for NADH) over time in an Agilent Technologies (Palo Alto, Calif.) model 8453 UV-Visible Spectroscopy System containing a thermostat-controlled cell holder at 30° C.

S-ADH from T. brockii = target: T2, S-ADH from T. brockii (Thermoanaerobacter brockii, UniProt P14941); assay: S-ADH spectrophotometric assay, T. brockii S-ADH; format: biochemical, Thermoanaerobium brockii; settings: for Relative S-ADH Activity (%) T. brockii, ketone reduction: ketone reduction rates, pH 6.2, 2.5 mM substrate, 0.2 mM NADPH, acetone = 100; for Relative S-ADH Activity (%) T. brockii, alcohol oxidation: alcohol oxidation rates, pH 7.6, 2.5 mM substrate, 0.2 mM NADP+, 2-propanol = 100, NA = no activity detected
T2 sequence (P14941 1-352): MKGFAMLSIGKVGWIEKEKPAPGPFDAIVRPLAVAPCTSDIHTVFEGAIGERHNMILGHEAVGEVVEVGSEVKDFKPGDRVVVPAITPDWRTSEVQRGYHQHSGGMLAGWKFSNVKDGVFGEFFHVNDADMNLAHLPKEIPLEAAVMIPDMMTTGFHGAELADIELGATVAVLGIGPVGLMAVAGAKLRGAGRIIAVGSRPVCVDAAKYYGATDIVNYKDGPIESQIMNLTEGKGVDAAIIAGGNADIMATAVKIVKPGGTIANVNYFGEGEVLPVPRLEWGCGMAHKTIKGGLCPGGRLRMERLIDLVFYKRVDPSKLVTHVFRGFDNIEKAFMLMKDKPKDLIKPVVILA
Experimental: […] Assays were pre-incubated for 1.5 min. at 30° C. with all assay components except substrate. Assays were initiated by addition of substrate (2.5 mM) and monitored over time by measuring the change in absorbance at 340 nm (∈340 of 6.22 mM^−1·cm^−1 for NADH).

[2] = test system: S-ADH purified from M vaccae strain JOB-5; settings: M vaccae enzyme; alcohols oxidized, acetone reduced; cited from earlier work

SMILES	Relative S-ADH Activity (%) T. brockii, ketone reduction (S-ADH from T. brockii) [%]	Km [2] [µM]	activity as substrate and inhibition of acetone carboxylation activity [1]	Relative S-ADH Activity (%) T. brockii, alcohol oxidation (S-ADH from T. brockii) [%]	also measured
CCO [Ethanol]	–	–	–	–	effect on rate of NADH oxidation (inhibition) ([1]; addition of ethanol (10 mM)): no decrease in the rate was observed
CCC(C)=O [2-Butanone]	67	–	–	–	rate relative to acetone using the coupled enzyme system [1]: 3 to 4%
CC(C)=O [Acetone, acetone]	100	300	–	–	–
CCCO [1-Propanol]	–	8100	not active nor did they inhibit acetone carboxylation activity	–	–
CCC(C)O (stereo not drawn) [2-Butanol]	–	–	not active nor did they inhibit acetone carboxylation activity	121	–
CC(C)O [2-Propanol]	–	50	not active nor did they inhibit acetone carboxylation activity	100	–
